What was measured:
Assay in all cases: relative viability (nuclei count vs DMSO), 5 days (fraction); higher = more cells survive
Cediranib + Palbociclib = compound: COc1cc2c(Oc3ccc4[nH]c(C)cc4c3F)ncnc2cc1OCCCN1CCCC1 [Cediranib] + CC(=O)c1c(C)c2cnc(Nc3ccc(N4CCNCC4)cn3)nc2n(C2CCCC2)c1=O [Palbociclib] (partner 0.5 µM)
Summary of the method: (§1)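 Lung cancer cell lines in 1536-well plates got either a single drug or a fixed anchor-drug dose together with five library-drug doses (not always all listed) in √10 steps, by pin tool, on the day after seeding. Nuclei were counted after 5 days, and relative viability is the treated-to-vehicle ratio of nuclei counts. Values are medians of duplicate plates.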

Decitabine + Phenformin = compound: Nc1ncn([C@H]2C[C@H](O)[C@@H](CO)O2)c(=O)n1 [Decitabine] + N=C(N)NC(=N)NCCc1ccccc1 [Phenformin] (partner 250 µM)
Summary of the method: as §1

Halofuginone + Foretinib = compound: O=C(C[C@H]1NCCC[C@@H]1O)Cn1cnc2cc(Br)c(Cl)cc2c1=O (racemic) [Halofuginone] + COc1cc2c(Oc3ccc(NC(=O)C4(C(=O)Nc5ccc(F)cc5)CC4)cc3F)ccnc2cc1OCCCN1CCOCC1 [Foretinib] (partner 0.25 µM)
Summary of the method: as §1

[1] = compound: O=C(C[C@H]1NCCC[C@@H]1O)Cn1cnc2cc(Br)c(Cl)cc2c1=O (racemic) [Halofuginone] + Nc1nc2[nH]cc(CCc3ccc(C(=O)N[C@@H](CCC(=O)O)C(=O)O)cc3)c2c(=O)[nH]1 [Pemetrexed] (partner 0.2 µM)
Summary of the method: as §1

Cell Line	relative viability (Cediranib + Palbociclib; first compound 0.04 µM)	relative viability (Cediranib + Palbociclib; first compound 0.1265 µM)	relative viability (Cediranib + Palbociclib; first compound 0.4 µM)	relative viability (Cediranib + Palbociclib; first compound 1.265 µM)	relative viability (Cediranib + Palbociclib; first compound 4 µM)	relative viability (Decitabine + Phenformin; first compound 0.04 µM)	relative viability (Decitabine + Phenformin; first compound 0.1265 µM)	relative viability (Decitabine + Phenformin; first compound 0.4 µM)	relative viability (Decitabine + Phenformin; first compound 1.265 µM)	relative viability (Decitabine + Phenformin; first compound 4 µM)	relative viability (Halofuginone + Foretinib; first compound 0.001 µM)	relative viability (Halofuginone + Foretinib; first compound 0.003162 µM)	relative viability (Halofuginone + Foretinib; first compound 0.01 µM)	relative viability (Halofuginone + Foretinib; first compound 0.03162 µM)	relative viability (Halofuginone + Foretinib; first compound 0.1 µM)	relative viability ([1]; first compound 0.001 µM)	relative viability ([1]; first compound 0.003162 µM)	relative viability ([1]; first compound 0.01 µM)	relative viability ([1]; first compound 0.03162 µM)	relative viability ([1]; first compound 0.1 µM)
NCI-H727	0.649	0.736	0.703	0.616	0.644	0.549	0.503	0.367	0.423	0.362	1.11	0.884	0.732	0.738	0.527					
NCI-H358	0.142	0.177	0.129	0.13	0.14	0.246	0.258	0.168	0.148	0.136	0.754	0.393	0.448	0.212	0.0804	0.171	0.167	0.167	0.154	0.138
NCI-H1437	0.32	0.305	0.291	0.349	0.335	0.29	0.311	0.209	0.233	0.26	1.31	1.26	1.22	1.2	1.21	0.318	0.337	0.329	0.307	0.254
NCI-H441	0.202	0.258	0.22	0.205	0.275	0.494	0.428	0.306	0.289	0.231	1.08	1.03	0.823	0.643	0.362	0.28	0.263	0.205	0.261	0.246
EMC-BAC-2	0.519	0.562	0.529	0.51	0.499	0.514	0.541	0.462	0.414	0.406	1.06	0.972	0.986	0.78	0.423	0.482	0.462	0.486	0.524	0.438
NCI-H647	0.349	0.385	0.336	0.457	0.448	0.372	0.399	0.25	0.101	0.172	1.18	1.23	1.16	0.979	0.528	0.191	0.171	0.172	0.155	0.0946
CAL-12T	0.535	0.408	0.411	0.466	0.666	0.517	0.633		0.372	0.339	1.33	1.21	1.08	1.41	0.898	1.17	1.08	1.3	0.953	0.72
NCI-H1792	0.599	0.607	0.584	0.739	0.682	0.445	0.275	0.707	0.262	0.175						0.922	0.813	0.53	0.891	0.391
H3255	0.322	0.322	0.316	0.308	0.334		0.339	0.364	0.291	0.347	0.748	0.849	0.825	1.01	0.856	0.585	0.587	0.565	0.57	0.567
HCC-78	0.55		0.507	0.53	0.592	0.626	0.634	0.593	0.505	0.477	0.593	0.635	0.488	0.684	0.552	0.906	0.926	0.885	0.937	0.889
EBC-1											0.106	0.112	0.108	0.104	0.104					
NCI-H2405	0.532	0.574	0.516	0.546	0.514	0.388	0.39	0.408	0.321	0.366	1.11	1.1	1.03	1.02	0.888	1.14	1.07	0.978	0.989	0.638
A549						0.145	0.139	0.157	0.0732	0.0645	1.06	0.921	0.925	0.507	0.112					
NCI-H3122	0.209		0.186	0.199	0.175	0.371	0.364	0.342		0.315	0.931	0.946	0.963	0.96	0.987	0.207	0.191	0.205	0.189	0.198
NCI-H1563						0.631	0.75	0.764	0.658	0.74	0.985	0.879	0.905	0.662	0.509	0.782	0.788	0.825	0.685	0.585
HCC-44	0.983	0.917	0.974	0.947	1.01	0.136	0.196	0.0892	0.136	0.13						0.697	0.654	0.619	0.622	0.621
PC-3 [JPC-3]	0.571		0.515	0.559	0.563	0.372	0.452	0.393	0.386	0.379	1.02	1.04	0.981	0.996	1.08	1.1	1.12	0.983	1.21	0.854

Cell Line	relative viability (Cediranib + Palbociclib; first compound 0.04 µM)	relative viability (Cediranib + Palbociclib; first compound 0.1265 µM)	relative viability (Cediranib + Palbociclib; first compound 0.4 µM)	relative viability (Cediranib + Palbociclib; first compound 1.265 µM)	relative viability (Cediranib + Palbociclib; first compound 4 µM)	relative viability (Decitabine + Phenformin; first compound 0.04 µM)	relative viability (Decitabine + Phenformin; first compound 0.1265 µM)	relative viability (Decitabine + Phenformin; first compound 0.4 µM)	relative viability (Decitabine + Phenformin; first compound 1.265 µM)	relative viability (Decitabine + Phenformin; first compound 4 µM)	relative viability (Halofuginone + Foretinib; first compound 0.001 µM)	relative viability (Halofuginone + Foretinib; first compound 0.003162 µM)	relative viability (Halofuginone + Foretinib; first compound 0.01 µM)	relative viability (Halofuginone + Foretinib; first compound 0.03162 µM)	relative viability (Halofuginone + Foretinib; first compound 0.1 µM)	relative viability ([1]; first compound 0.001 µM)	relative viability ([1]; first compound 0.003162 µM)	relative viability ([1]; first compound 0.01 µM)	relative viability ([1]; first compound 0.03162 µM)	relative viability ([1]; first compound 0.1 µM)
NCI-H1993		0.634	0.64	0.656	0.637	0.558	0.494	0.507	0.504	0.478	0.911	0.749	0.727	0.772	0.734	0.664	0.577	0.564	0.652	0.508
LOU-NH91	0.55	0.561	0.51	0.513	0.533	0.442	0.724	0.732	0.588	0.659	0.985	0.917	0.887	0.925	0.949	0.405	0.391	0.425	0.4	0.403
SW 900	0.569	0.677	0.552	0.575	0.594	0.319	0.32	0.269	0.19	0.219	1.1	0.833	0.809	0.627	0.355	0.483	0.505		0.432	0.445
LCLC-103H	0.494	0.47	0.511	0.469	0.521	0.319	0.36	0.293	0.328	0.315	0.871	0.768	0.813	0.749	0.848	0.479	0.362	0.455	0.443	0.498
NCI-H1915	0.549	0.491	0.506	0.512	0.553	0.291	0.294	0.274	0.242	0.26	1.12	1.16	1.07	1.03	0.97	0.499	0.546	0.513	0.392	0.465
IA-LM											1.29	1.03	1.08	0.982	0.07					
NCI-H1734	0.322	0.348	0.383	0.356	0.305	0.348	0.38	0.382	0.276	0.274	0.961	0.809	0.831	0.751	0.485	0.408	0.438	0.401	0.441	0.488
SK-MES-1	0.304	0.311	0.328	0.283	0.324	0.535	0.553	0.346	0.271	0.291	1.06	1.06	0.911	0.828	0.611	1.07	0.983	0.877	0.74	0.253
Calu-6											0.961	0.95	0.925	0.472	0.109					
HCC-15	0.69		0.681	0.751	0.678	0.448	0.49	0.252	0.327	0.333	1.02	1.1	1.05	0.967	0.787	0.214	0.248	0.226	0.231	0.235
NCI-H1299											1.13	1.13	1.07	1.09	0.561					
NCI-H522	1.04	0.899	0.891	0.998	1.07	0.564	0.674	0.514	0.552	0.65						1.08	0.968	1.03	1.11	0.918
NCI-H1623						0.539	0.507	0.5	0.492	0.462	0.888	0.895	0.954	0.876	0.536					
NCI-H596						0.815	0.666		0.582	0.53	0.885	0.804	0.78	0.69	0.314	0.514	0.506	0.468	0.511	0.451
NCI-H1648	0.28	0.242	0.287	0.307	0.633											0.666	0.732	0.92	0.796	0.91
NCI-H1703											0.301	0.295	0.363	0.294	0.337					
ABC-1	0.766	1.04	0.538	0.853	0.426	0.238	0.231	0.25	0.252	0.212	1.28	1.38	1.07	1.13	0.9					

From the supplement of paper PMC10307832
